Reference: patent US20200390755A1, “COMPOUND FOR TREATING NERVOUS SYSTEM DISEASES AND USE THEREOF” (SHAANXI MICOT TECHNOLOGY CO., LTD., priority 2018, published 2020)
Marks after values point to notes of the source that are not given here.

Each molecule was assayed on rats with permanent cerebral ischemia (assay: Neurobehavioral scoring in rats with permanent cerebral ischemia (MCAO thread plug)). Conditions: 20 mg/kg by gavage, 6 h after ischemia.
Format: in vivo, SD rats
Method: SD rats, male, about 220-250 g, were provided by the Experimental Animal Center of Medical College of Xi'an Jiaotong University. Rats were randomly divided into groups of 14 animals/group. The experiment included a sham group, a model group, a positive control Edaravone group and test compound groups 1-5.12 hours before the operation, the rats were fasted and were free to drink water, and then used for the modeling method of middle cerebral artery occlusion with thread plug. The rats were fixed on a wooden board after anesthesia, the common carotid artery was ligated proximally, the external carotid artery was ligated distally, and the main internal carotid artery into skull was retained. A ligature line was reserved at the bifurcation of the internal carotid artery for temporarily clamping the distal end of the internal carotid artery using an arterial clip. A 3-0 nylon thread with a length of 5 cm and a spherical shape with a diameter of 0.3 mm at the tip was inserted into the common carotid artery through a small incision at the bifurcation. The arterial clamp was loosened, and the thread plug was slowly advanced to 18˜20 mm. When there was resistance, the progress of the thread was stopped. At this time, the nylon thread plug entered the middle artery and blocked the blood flow, and then the ischemic phase began. The skin was sutured. In the sham operation group, the same procedure was executed, except that no thread plug was inserted.
Administering was performed at 0 h, 3 h, 6 h and 12 h after ischemia, and then administering was performed once a day for 7 consecutive days. The test compound was prepared into a 4 mg/mL solution with 1% CMC-Na solution and administered by gavage. The edaravone group received an intravenous dose of 0.078 mg/kg.
2) The rats were lifted at its tail about 1 foot off the ground to observe the condition of both forelimbs. The rats were placed on a level ground and pushed on both shoulders to observe the difference in resistance on both sides. The rats were placed on the ground to observe the walking. The assessment was conducted using a five-grade four-point scoring method (0 to 4 points). The higher the score, the more severe the neurobehavioral damage.
0 point: the behavior is completely normal;
1 point: when the rat is lifted at its tail off the ground, the forelimb on the opposite side of the operation rotates and folds inwardly.
2 points: when the rat is placed on a level ground and pushed on both shoulders to observe the difference in resistance on both sides, the resistance on the opposite side of the operation reduces;
3 points: when the rat is placed on the ground to the walking, it circles around the opposite side of the operation;
4 points: The injury is so severe that the rat is unable to move independently.
(2) Statistical analysis of data: SPSS18.0 statistical software was used for statistical analysis and the data of each group was expressed as the mean standard error (x±SEM). One-way ANOVA and multiple comparisons between groups were used to compare the averages of measurement data among multiple groups. Rank score test was used for behavioral grading data, and Kaplan-Meier method was used for mortality. P<0.05 was considered statistically significant.

Row | Compound | Neurobehavioral score (0 to 4 points)
1 | O=c1cc(-c2ccc(N3CCCCC3)cc2)oc2c(O)c(O)ccc12 [Example 1, 7,8-dihydroxy-2-(4-(piperidin-1-yl)phenyl)-4H-chromen-4-one] | 2.07 ± 0.22
2 | COc1ccc2c(=O)cc(-c3ccc(N4CCCCC4)cc3)oc2c1OC [Example 2, 7,8-dimethoxy-2-(4-(piperidin-1-yl)phenyl)-4H-chromen-4-one] | 2.13 ± 0.17

Same assay, conditions: 20 mg/kg by gavage, 1 d after ischemia

Row | Compound | Neurobehavioral score (0 to 4 points)
3 | O=c1cc(-c2ccc(N3CCCCC3)cc2)oc2c(O)c(O)ccc12 [Example 1, 7,8-dihydroxy-2-(4-(piperidin-1-yl)phenyl)-4H-chromen-4-one] | 2.11 ± 0.2
4 | COc1ccc2c(=O)cc(-c3ccc(N4CCCCC4)cc3)oc2c1OC [Example 2, 7,8-dimethoxy-2-(4-(piperidin-1-yl)phenyl)-4H-chromen-4-one] | 2.04 ± 0.13

Same assay, conditions: 20 mg/kg by gavage, 2 d after ischemia

Row | Compound | Neurobehavioral score (0 to 4 points)
5 | O=c1cc(-c2ccc(N3CCCCC3)cc2)oc2c(O)c(O)ccc12 [Example 1, 7,8-dihydroxy-2-(4-(piperidin-1-yl)phenyl)-4H-chromen-4-one] | 1.88 ± 0.35
6 | COc1ccc2c(=O)cc(-c3ccc(N4CCCCC4)cc3)oc2c1OC [Example 2, 7,8-dimethoxy-2-(4-(piperidin-1-yl)phenyl)-4H-chromen-4-one] | 2.20 ± 0.25

Same assay, conditions: 20 mg/kg by gavage, 3 d after ischemia

Row | Compound | Neurobehavioral score (0 to 4 points)
7 | O=c1cc(-c2ccc(N3CCCCC3)cc2)oc2c(O)c(O)ccc12 [Example 1, 7,8-dihydroxy-2-(4-(piperidin-1-yl)phenyl)-4H-chromen-4-one] | 2.13 ± 0.23
8 | COc1ccc2c(=O)cc(-c3ccc(N4CCCCC4)cc3)oc2c1OC [Example 2, 7,8-dimethoxy-2-(4-(piperidin-1-yl)phenyl)-4H-chromen-4-one] | 1.98 ± 0.45

Same assay, conditions: 20 mg/kg by gavage, 4 d after ischemia

Row | Compound | Neurobehavioral score (0 to 4 points)
9 | O=c1cc(-c2ccc(N3CCCCC3)cc2)oc2c(O)c(O)ccc12 [Example 1, 7,8-dihydroxy-2-(4-(piperidin-1-yl)phenyl)-4H-chromen-4-one] | 1.88 ± 0.35
10 | COc1ccc2c(=O)cc(-c3ccc(N4CCCCC4)cc3)oc2c1OC [Example 2, 7,8-dimethoxy-2-(4-(piperidin-1-yl)phenyl)-4H-chromen-4-one] | 1.87 ± 0.27

Same assay, conditions: 20 mg/kg by gavage, 5 d after ischemia

Row | Compound | Neurobehavioral score (0 to 4 points)
11 | O=c1cc(-c2ccc(N3CCCCC3)cc2)oc2c(O)c(O)ccc12 [Example 1, 7,8-dihydroxy-2-(4-(piperidin-1-yl)phenyl)-4H-chromen-4-one] | 2 ± 0.38
12 | COc1ccc2c(=O)cc(-c3ccc(N4CCCCC4)cc3)oc2c1OC [Example 2, 7,8-dimethoxy-2-(4-(piperidin-1-yl)phenyl)-4H-chromen-4-one] | 2.11 ± 0.16

Same assay, conditions: 20 mg/kg by gavage, 6 d after ischemia

Row | Compound | Neurobehavioral score (0 to 4 points)
13 | O=c1cc(-c2ccc(N3CCCCC3)cc2)oc2c(O)c(O)ccc12 [Example 1, 7,8-dihydroxy-2-(4-(piperidin-1-yl)phenyl)-4H-chromen-4-one] | 1.86 ± 0.34
14 | COc1ccc2c(=O)cc(-c3ccc(N4CCCCC4)cc3)oc2c1OC [Example 2, 7,8-dimethoxy-2-(4-(piperidin-1-yl)phenyl)-4H-chromen-4-one] | 1.79 ± 0.28

Same assay, conditions: 20 mg/kg by gavage, 7 d after ischemia

Row | Compound | Neurobehavioral score (0 to 4 points)
15 | O=c1cc(-c2ccc(N3CCCCC3)cc2)oc2c(O)c(O)ccc12 [Example 1, 7,8-dihydroxy-2-(4-(piperidin-1-yl)phenyl)-4H-chromen-4-one] | 1.17 ± 0.17
16 | COc1ccc2c(=O)cc(-c3ccc(N4CCCCC4)cc3)oc2c1OC [Example 2, 7,8-dimethoxy-2-(4-(piperidin-1-yl)phenyl)-4H-chromen-4-one] | 1.21 ± 0.22

Each molecule was assayed on N171-82Q HD mice (assay: In vivo MRI scan and brain volume measurement, HD mice). Conditions: 5 mg/kg/d, administered until 24 weeks, n = 4.
Set-up: species or system mouse
Method: 7-week-old N171-82Q HD male mice were paired with female B6C3F1/J hybrid mice to obtain newborn mice. From 21 days of age, male mice were housed in separate cages. 0.5 cm of mouse tail tissue was removed to extract DNA to determine the genotype of the mouse, such that N171-82Q HD mice and WT mice needed for the experiment were obtained. The mice were randomly divided into WT Vehicle group (normal mice), WT test compound group (administration group of normal mice, 5 mg/kg/d, n=10), HD Vehicle group (blank group of HD mice, n=15), HD test compound group (administration groups 1-5 of HD mice, 5 mg/kg/d, n=10). The test compound was suspended in 1% CMC-Na solution and administered by intragastric administration until the end of the study. The weights of the mice were measured every week. Behavioral tests were performed at 12 weeks, 18 weeks, and 24 weeks of age to investigate motor function. At 20 weeks, 3 samples of tissue from each group were used for western blotting and immunohistochemistry. At 24 weeks, MRI scans were performed. At the end of the study, the effect of the test compound on the mortality of mice was evaluated.
The WT Vehicle group, WT test compound group, HD Vehicle group and HD test compound group were administered until 24 weeks, and 4 mice in each group were taken for in vivo MRI scanning and brain volume measurement. A 9.4 T MRI scanner equipped with three-axis gradient and animal imaging probes was used. The mice were anesthetized with 1% isoflurane. The breath of mice was monitored, and constant temperature was maintained throughout the scan. Three-dimensional T2 weighted fast spin echo sequence technology was used to obtain images. The imaging resolution and contrast of this technology were sufficient to automatically describe the volume of the mouse brain and substructures. The parameters were as follows: echo time (TE)/repetition time (TR) ^1/440/700 ms, resolution ^1/40.1×0.1×0.1 mm, echo train length ^1/44, average number ^1/42 and flip angle ^1/4408. The instrument contained a powerful linux cluster that can encode and run large-scale deformation diffusion metric maps (LDDMM) to obtain high-intensity standardized images. These transformations encoded morphological differences between images and analyzed based on deformation morphological measurements (DBM) to detect regional changes in brain volume. The volume of the whole brain (Brain), […] was analyzed.
The MRI scanning technology was used to analyze the morphological differences between the experimental object and the template image, and the LDDMM method was used to calculate and analyze the brain tissue structure of the mouse. The statistical results of the brain volume, striatum volume, and neurocortex volume of the test compound Example 1 are shown in FIG. 3, in which FIG. 3A is the statistical results of the whole brain volume, and FIG. 3B is the statistical results of striatum volume, and FIG. 3C is the statistical results of neurocortex volume.

Row | Compound | MRI volume, Neurocortex | MRI volume, Striatum | MRI volume, Whole brain
17 | O=c1cc(-c2ccc(N3CCCCC3)cc2)oc2c(O)c(O)ccc12 [Example 1, 7,8-dihydroxy-2-(4-(piperidin-1-yl)phenyl)-4H-chromen-4-one] | 18.90 ± 0.341** mm^3 | 79.47 ± 1.079** mm^3 | 460.47 ± 2.145** mm^3
18 | COc1ccc2c(=O)cc(-c3ccc(N4CCCCC4)cc3)oc2c1OC [Example 2, 7,8-dimethoxy-2-(4-(piperidin-1-yl)phenyl)-4H-chromen-4-one] | 18.68 ± 0.598** mm^3 | 79.10 ± 0.976** mm^3 | 449.97 ± 7.279** mm^3
